Reference: patent US12515963B2, “Nanoparticle composition and method of inhibiting ovarian cancer cell viability” (priority 2019, dated 2026)
Where two headings read alike, the source gives them in different places.

Legend:
Bacillus subtilis = experiment: Minimum inhibitory concentration (MIC); format: cell-based
Procedure: (§1) Minimum inhibitory concentration (MIC) was determined to assess the antibacterial potential of the compositions of Example 6 in microorganisms. MIC is the lowest concentration of a drug which prevents visible growth of bacterium. The tested panel of microorganisms represented a very broad spectrum of antibiotic resistant microorganisms. Sample 4-1 and Tetracycline (as control) were tested against multidrug-resistant Salmonella typhimurium DT 104. Sample 4-2 and Amoxicillin (as control) were tested against Bacillus subtilis. Sample 4-3 and Vancomycin (as control) were tested against vancomycin resistant Enterococcus type Van-A and also vancomycin resistant Leuconostoc mesenteroides VKPM B-4177. In all test conditions monometallic silver nanoparticle composition with Miramistin® alone (obtained using a process known in the art) were used as a control. This composition is referred to as “Ag-NPs-Myramistin in Table 8.

[1] = system: U-87 (human glioblastoma); experiment: Cancer cell viability (cytotoxic effect); format: cell-based; conditions: U-87, Doxorubicin column
Procedure: (§2) The cytotoxic effects of Samples 1-1 and 1-3 on cancer cells were studied in HCT-116 (human colon cancer cell lines), CRL-2945 (human ovarian carcinoma) and U-87 (human glioblastoma). Cell viability was analyzed in cells treated with different concentrations of Sample 1-1 and Sample 1-3. Nanoparticle samples were able to reduce viability in a dose-dependent manner. […] The doses were used to calculate IC50 value against the control cells (Table 3).
(§3) The cytotoxic effects of Samples 6-1, 6-2, 7-1 and 7-2, glucosamine and Metformin on cancer cells were studied in CRL-2945 (human ovarian carcinoma) and U-87 (human glioblastoma). The doxorubicin resistant CRL-2945 and U-87 cells were generated by exposing the cells to the cytotoxic drug at incrementally increasing concentrations. In this way, resistant sublines were obtained (CRL-2945-R and U-87-R). The cell viability was analyzed in cells treated with different concentrations of Sample 6-1, Sample 6-2, Sample 7-1 and Sample 7-2. The samples were able to reduce viability in a dose-dependent manner. […] The doses were used to calculate IC50 values against the control cells (Table 12).

[2] = system: CRL-2945 (human ovarian carcinoma); experiment: Cancer cell viability (cytotoxic effect); format: cell-based; conditions: CRL-2945, Doxorubicin column
Procedure: as §2, §3

CRL-2945-R = experiment: Cancer cell viability (cytotoxic effect), doxorubicin resistant subline; format: cell-based; conditions: Homo sapiens, Doxorubicin column
Procedure: as §3

U-87-R = experiment: as above; format: cell-based; conditions: Homo sapiens, Doxorubicin column
Procedure: as §3

[3] = system: CRL-2945 and U-87 cancer cells; experiment: Activity of the drugs alone on cancer cells; format: cell-based, human; conditions: drug alone, data not shown
Procedure: as §3
Higher toxicity of Sample 6-2 can be explained by the fact that Sample 6-2 bears very toxic doxorubicin, which is delivered into the cells with nanoparticles. […] Cancer cells CRL-2945-R and U-87-R were cultured in serum-free media to enrich the populations with cancer stem cells. Thus, enriched cells were tested with the samples.

[4] = system: vancomycin resistant Leuconostoc mesenteroides VKPM B-4177; experiment: Minimum inhibitory concentration (MIC); format: cell-based
Procedure: (§4) Minimum inhibitory concentration (MIC) was determined to assess antibacterial and antifungal activities of the samples in microorganisms. MIC is the lowest concentration of a drug, which prevents visible growth of bacterium. The tested panel of microorganisms represent a very broad spectrum of microorganisms, including Gram-positive and Gram-negative strains (Staphylococcus aureus vs. Escherichia coli), methicillin resistant strain INA 00761 (Staphylococcus aureus), vancomycin resistant strain VKPM B-4177 (Leuconostoc mesenteroides), fungi strain INA 00760 (Aspergillus niger), and yeast strain RIA259 (Saccharomyces cerevisiae).
as §1

[5] = system: Aspergillus niger INA 00760; experiment: Minimum inhibitory concentration (MIC); format: cell-based
Procedure: as §4

[6] = system: Saccharomyces cerevisiae RIA 259; experiment: Minimum inhibitory concentration (MIC); format: cell-based
Procedure: as §4

[7] = system: Escherichia coli ATCC 25922; experiment: Minimum inhibitory concentration (MIC); format: cell-based
Procedure: as §4

[8] = system: Staphylococcus aureus FDA 209P; experiment: Minimum inhibitory concentration (MIC); format: cell-based
Procedure: as §4

[9] = system: methicillin resistant Staphylococcus aureus INA 00761; experiment: Minimum inhibitory concentration (MIC); format: cell-based
Procedure: as §4

[10] = system: multidrug-resistant Salmonella typhimurium DT 104; experiment: Minimum inhibitory concentration (MIC); format: cell-based; conditions: Salmonella enterica
Procedure: as §1

With CC1(C)S[C@@H]2[C@H](NC(=O)[C@H](N)c3ccc(O)cc3)C(=O)N2[C@H]1C(=O)O [Amoxicillin] the MIC (Bacillus subtilis) was > 128 µg/mL.

In the case of COc1cccc2c1C(=O)c1c(O)c3c(c(O)c1C2=O)C[C@@](O)(C(=O)CO)C[C@@H]3O[C@H]1C[C@H](N)[C@H](O)[C@H](C)O1 [Doxorubicin], the IC50 [1] is reported as 80 nM, the IC50 [2] is reported as 130 nM and the IC50 (CRL-2945-R) is reported as 280 nM. The IC50 (U-87-R) was 1200 nM.

For N[C@H]1C(O)O[C@H](CO)[C@@H](O)[C@@H]1O (stereo partly drawn) [Glucosamine], the “activity alone on cancer cells” value [3] was “did not show any significant activity”.

In the case of CN(C)C(=N)N=C(N)N [Metformin], the “activity alone on cancer cells” value [3] is reported as “did not show any significant activity”.

For CCCCCCCCCCCCCC(=O)NCCC[N+](C)(C)Cc1ccccc1.[Cl-] [Miramistin ®, benzyl-dimethyl-[3-(tetradecanoylamino)propyl]ammonium chloride], the MIC ([4]; Leuconostoc mesenteroides VKPM B-4177, read-out: MIC) was 10 µg/mL, the MIC ([5]; INA00760, read-out: MIC) was 20 µg/mL and the MIC ([6]; RIA259, read-out: MIC) was 20 µg/mL. The MIC ([7]; ATCC25922, read-out: MIC) was 20 µg/mL, the MIC ([8]; FDA209P, read-out: MIC) was 5 µg/mL and the MIC ([9]; read-out: MIC) was 10 µg/mL.

O=[N+]([O-])[O-].[Ag+] [Silver Nitrate, silver nitrate] was tested, and the MIC ([4]; Leuconostoc mesenteroides VKPM B-4177) was 5 µg/mL, the MIC [5] was 20 µg/mL and the MIC [6] was 10 µg/mL. For the same compound, the MIC [7] was 10 µg/mL, the MIC [8] was 20 µg/mL and the MIC [9] was 5 µg/mL.

For CN(C)[C@@H]1C(O)=C(C(N)=O)C(=O)[C@@]2(O)C(O)=C3C(=O)c4c(O)cccc4[C@@](C)(O)[C@H]3C[C@@H]12 [Tetracycline], the MIC [10] was > 128 µg/mL.

In the case of CN[C@H](CC(C)C)C(=O)N[C@H]1C(=O)N[C@@H](CC(N)=O)C(=O)N[C@H]2C(=O)N[C@H]3C(=O)N[C@H](C(=O)N[C@H](C(=O)O)c4cc(O)cc(O)c4-c4cc3ccc4O)[C@H](O)c3ccc(c(Cl)c3)Oc3cc2cc(c3O[C@@H]2O[C@H](CO)[C@@H](O)[C@H](O)[C@H]2O[C@H]2C[C@](C)(N)[C@H](O)[C@H](C)O2)Oc2ccc(cc2Cl)[C@H]1O [Vancomycin], the MIC ([4]; Leuconostoc mesenteroides) is reported as > 128 µg/mL.
